Results taken from patent US20120157471A1, “BENZIMIDAZOLE DERIVATIVES” (PFIZER INC., priority 2009, published 2012).

How the values were obtained:
[1] = target: T1, human Smo (amino acids 181-787) (Homo sapiens, UniProt Q99835); assay: Smo radioligand competition binding assay (displacement of 3H-PF-03451358 from HEK293 membranes); settings: for inhibition at 0.05 µM: 0.05 μM test compound, displacement of 3H-PF-03451358, read-out: SMO % inh. @ 0.05 μM; for IC50: radioligand competition binding
T1 construct: expressed in transfected cells; membrane preparation
How it was run: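 Displacement of 3 nM tritiated PF-03451358 measured by filtration and scintillation counting after 2 h at room temperature, using 40 μg/well HEK293 membranes bearing cell-surface Smo 181-787, pH 7.5 buffer. Specific binding defined against 30 μM unlabelled ligand; IC50 via variable-slope sigmoidal fit.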

[2] = test system: Gli-Luc/MEF cells (Smo); assay: Gli-Luc/MEF assay (Shh-stimulated luciferase reporter under the Gli response element); format: cell-based, mouse; settings: Mus musculus, MEF, 48 h
How it was run: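 IC50 derived from luminescence (Bright-Glo) after 48 h at 37° C, 5% CO2, with compound at […] (3-fold dilutions) added together with mouse Shh at 2 μg/mL final. Cells: MEFs from Gli-Luc transgenic mice.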

T1 sequence (Q99835 181-787): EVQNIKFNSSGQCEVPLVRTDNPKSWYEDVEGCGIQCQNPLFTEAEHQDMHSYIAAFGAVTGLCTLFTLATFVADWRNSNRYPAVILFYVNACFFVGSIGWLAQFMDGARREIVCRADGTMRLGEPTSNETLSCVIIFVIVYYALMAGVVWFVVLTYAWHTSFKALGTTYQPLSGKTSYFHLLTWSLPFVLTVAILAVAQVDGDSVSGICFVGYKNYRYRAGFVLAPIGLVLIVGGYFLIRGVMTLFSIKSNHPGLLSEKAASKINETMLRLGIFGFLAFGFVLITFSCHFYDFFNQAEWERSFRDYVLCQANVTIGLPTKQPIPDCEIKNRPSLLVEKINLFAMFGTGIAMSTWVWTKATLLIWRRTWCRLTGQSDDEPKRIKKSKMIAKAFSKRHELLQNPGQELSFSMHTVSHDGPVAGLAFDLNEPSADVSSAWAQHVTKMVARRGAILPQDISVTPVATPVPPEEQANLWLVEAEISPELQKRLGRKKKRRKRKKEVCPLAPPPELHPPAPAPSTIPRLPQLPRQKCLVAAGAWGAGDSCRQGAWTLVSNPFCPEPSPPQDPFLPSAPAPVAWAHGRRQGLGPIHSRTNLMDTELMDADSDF

Row | SMILES | inhibition at 0.05 µM [1] [%] | IC50 [1] [nM] | IC50 [2] [nM]
1 | COC(=O)N1CCN(c2cc(-c3nc4ccccc4n3C)c(F)cn2)CC1 [Example D-2, methyl 4-[5-fluoro-4-(1-methyl-1H-benzimidazol-2-yl)pyridin-2-yl]piperazine-1-carboxylate] | 95 | 13 | 13
2 | CCNC(=O)N1CCN(c2cc(-c3nc4ccccc4n3C)c(F)cn2)CC1 [Example D-3, N-ethyl-4-[5-fluoro-4-(1-methyl-1H-benzimidazol-2-yl)pyridin-2-yl]piperazine-1-carboxamide] | 98 | 8 | 10
3 | CCC(=O)N1CCN(c2cc(-c3nc4ccccc4n3C)c(F)cn2)CC1 [Example D-4, 2-[5-fluoro-2-(4-propionylpiperazin-1-yl)pyridin-4-yl]-1-methyl-1H-benzimidazole] | 98 | 19 | 20
4 | CCS(=O)(=O)N1CCN(c2cc(-c3nc4ccccc4n3C)c(F)cn2)CC1 [Example D-5, 2-{2-[4-(ethylsulfonyl)piperazin-1-yl]-5-fluoropyridin-4-yl}-1-methyl-1H-benzimidazole] | 97 | 18 | 17
5 | Cn1c(-c2cc(N3CCN(S(C)(=O)=O)CC3)ncc2F)nc2ccccc21 [Example D-6, 2-{5-fluoro-2-[4-(methylsulfonyl)piperazin-1-yl]pyridin-4-yl}-1-methyl-1H-benzimidazole] | 97 | 12 | 22
6 | CNC(=O)N1CCN(c2cc(-c3nc4ccccc4n3C)c(F)cn2)CC1 [Example D-7, 4-[5-fluoro-4-(1-methyl-1H-benzimidazol-2-yl)pyridin-2-yl]-N-methylpiperazine-1-carboxamide] | 88 | 47 | 54
7 | CCNC(=O)NC1CCN(c2cc(-c3nc4ccccc4n3C)c(F)cn2)CC1 [Example D-8, 1-ethyl-3-{1-[5-fluoro-4-{1-methyl-1H-benzimidazol-2-yl)pyridin-2-yl]piperidin-4-yl}urea] | 95 | 6 | 6
8 | CCS(=O)(=O)NC1CCN(c2cc(-c3nc4ccccc4n3C)c(F)cn2)CC1 [Example D-9, N-{1-[5-fluoro-4-(1-methyl-1H-benzimidazol-2-yl)pyridin-2-yl]piperidin-4-yl}ethanesulfonamide] | 99 | 5 | 3.9
9 | CN(C1CCN(c2cc(-c3nc4ccccc4n3C)c(F)cn2)CC1)S(C)(=O)=O [Example D-10, N-{1-[5-fluoro-4-(1-methyl-1H-benzimidazol-2-yl)pyridin-2-yl]piperidin-4-yl}-N-methylmethanesulfonamlde] | 102 | 7 | 4
10 | Cn1c(-c2cc(N3CCC(NS(C)(=O)=O)CC3)ncc2F)nc2ccccc21 [Example D-11, N-{1-[5-fluoro-4-(1-melhyl-1H-benzimidazol-2-yl)pyridin-2-yl]piperidin-4-yl}methanesulfonamide] | 98 | 6 | 4.2
11 | COC(=O)NC1CCN(c2cc(-c3nc4ccccc4n3C)c(F)cn2)CC1 [Example D-12, methyl {1-[5-fluoro-4-(1-methy-1H-benzimidazol-2-yl)pyridin-2-yl]plpetidin-4-yl}carbamate] | 96 | 8 | 7.7
12 | CNC(=O)NC1CCN(c2cc(-c3nc4ccccc4n3C)c(F)cn2)CC1 [Example D-13, 1-{1-[5-fluoro-4-(1-methyl-1H-benzimidazol-2-yl)pyridin-2-yl]piperidin-4-yl}-3-methylurea] | 97 | 23 | 13.4
13 | CC(=O)NC1CCN(c2cc(-c3nc4ccccc4n3C)c(F)cn2)CC1 [Example D-14, N-{1-[5-fluoro-4-(1-methyl-1H-benzimidazol-2-yl)pyridin-2-yl]piperidin-4-yl}acetamide] | 97 | 19 | 17.2
14 | Cn1c(-c2cc(N3CCN(S(=O)(=O)CCO)CC3)ncc2F)nc2ccccc21 [Example D-15, 2-({4-[5-fluoro-4-(1-methyl-1H-benzimidazol-2-yl)pyridin-2-yl]piperazin-1-yl}sulfonyl)ethanol] | 101 | 19 | 11
15 | Cn1c(-c2cc(N3CCN(S(=O)(=O)CC(C)(C)O)CC3)ncc2F)nc2ccccc21 [Example D-16, 1-({4-[5-fluoro-4-(1-methyl-1H-benzimidazol-2-yl)pyridin-2-yl]piperazin-1-yl}sulfonyl)-2-methylpropan-2-ol] | 94 | 9 | 3
16 | Cn1c(-c2cc(N3CCN(C(=O)CO)CC3)ncc2F)nc2ccccc21 [Example D-17, 1-{4-[5-fluoro-4-(1-methyl-1H-benzimidazol-2-yl)pyridin-2-yl]piperazin-1-yl}-2-hydroxyethanone] | 96 | 15 | 13
17 | Cn1c(-c2cc(N3CCN(C(=O)CCS(C)(=O)=O)CC3)ncc2F)nc2ccccc21 [Example D-18, 1-{4-[5-fluoro-4-(1-methyl-1H-benzimidazol-2-yl)pyridin-2-yl]piperazin-1-yl}-3-(methylsulfonyl)propan-1-one] | 100 | 11 | 3
18 | Cc1cnc(N2CCC(NS(C)(=O)=O)CC2)cc1-c1nc2ccccc2n1C [Example E-1, N-{1-[5-methyl-4-(1-methyl-1H-benzimidazol-2-yl)pyridin-2-yl]piperidin-4-yl}methanesulfonamide] | 98 | 19 | 19.8
19 | Cc1cnc(N2CCC(CS(C)(=O)=O)CC2)cc1-c1nc2ccccc2n1C [Example E-2, 1-methyl-2-(5-methyl-2-{4-[(methylsulfonyl)methyl]piperidin-1-yl}pyridin-4-yl)-1H-benzimidazole] | 99 | 18 | 20.9
20 | Cc1cnc(N2CCN(S(C)(=O)=O)CC2)cc1-c1nc2ccccc2n1C [Example E-3, 1-methyl-2-{5-methyl-2-[4-(methylsulfonyl)piperazin-1-yl]pyridin-4-yl}-1H-benzimidazole] | 97 | 33 | 38.1
21 | CC(=O)N1CCN(c2cc(-c3nc4ccccc4n3C)c(C)cn2)CC1 [Example E-4, 2-[2-(4-acetylpiperazin-1-yl)-5-methylpyridin-4-yl]-1-methyl-1H-benzimidazole] | 92 | 61 | 52.5
22 | Cc1cnc(N2CCC(S(C)(=O)=O)CC2)cc1-c1nc2ccccc2n1C [Example E-5, 1-methyl-2-{5-methyl-2-[4-(methylsulfonyl)piperidin-1-yl]pyridin-4-yl)-1H-benzimidazole] | 89 | 59 | 58.9
23 | Cc1ccc(N2CCC(S(C)(=O)=O)CC2)nc1-c1nc2ccccc2n1C [Example E-6, 1-methyl-2-{3-methyl-6-[4-(methylsulfonyl)piperidin-1-yl]pyridin-2-yl}-1H-benzimidazole] | 89 | 51 | 61.6
